Legend:
[1] = system: L. amazonensis promastigotes and amastigotes; assay: Tubulin intensity by confocal immunofluorescence microscopy; format: cell-based, Leishmania amazonensis; conditions: 24 h at EC50^72 h
Description: Promastigotes or amastigotes were treated with the indicated compound concentrations and allowed to adhere to poly-L-lysine coated plates. All cells were fixed with 4% paraformaldehyde and permeabilized/blocked with 0.01% Triton X-100 and 2% BSA in PBS. Promastigotes and amastigotes were incubated with mouse anti-gp46 or anti-p8, respectively at 1:50 or 1:1000 and rat anti-alpha-tubulin antibody at 1:1000. Samples were then probed with A568 anti-mouse and […] secondary antibodies (Molecular Probes). DNA was labeled with Hoescht. Samples were visualized on a Zeiss LSM 880 Inverted confocal Airyscan microscope at 63×; full Z-thicknesses through parasites were obtained. […] For microscopic analysis of mitotic arrest, at least 200 parasites were analyzed per condition per experiment after 48 hrs incubation at compounds' EC50, and the average plus standard error for three experiments was calculated. Representative images were selected from the maximal intensity projections and linearly processed in Adobe Photoshop CS6.
One reason why MMV676477 might affect parasite cell division is that, like paclitaxel, it might affect microtubule polymerization, either directly or indirectly. The degree to which MMV676477 affected microtubules polymerization in cells was examined. […] Centrifugation of these extracts allowed separation of insoluble polymeric (pellet) and soluble dimeric (supernatant) tubulin. […] The intensity of α-tubulin staining was examined by normalizing it to the intensity of a membrane protein (gp46 for promastigotes in FIG. 4D; p8 for amastigotes in FIG. 4E).

[2] = biological target: purified L. tarentolae tubulin (Leishmania tarentolae, UniProt A0A640KCM0+A0A640KQN0); assay: Chemical cross-linking competition with SW223022 probe; format: binding; conditions: 100-fold excess of competitor
[3] = biological target: T1, purified porcine tubulin (Sus scrofa, UniProt P02550+P02554); assay: Tubulin polymerization turbidity assay, mammalian tubulin; format: biochemical
T1 construct: purchased Cytoskeleton, Inc. T240
Description: Tubulin polymerization assays were performed in 96-well half-area microplates (Costar) in a final volume of 100 μL. Briefly, Leishmanial or porcine tubulin (>99% pure, Cat. #T240, Cytoskeleton, Inc.) in 50 μL volume was pre-treated with drugs on ice for 5 minutes before adding 50 μL ice cold buffer, to provide a final concentration of 3 mg/ml tubulin in 80 mM PIPES pH 6.9, 2 mM MgCl2, 0.5 mM EGTA, 1 mM GTP, and 1% DMSO unless specified otherwise. The absorbance at 340 nm was recorded in a Synergy H1 microplate reader (BioTek) for up to 45 min at 37° C. (porcine tubulin) or 30° C. (L. tarentolae tubulin).
(§1) To determine the selectivity of MMV676477, purified porcine tubulin was exposed to a serial dilution of the drug (0 to 25 μM) and absorbance was measured at 340 nm over time. […] To ensure that the absorbance seen at 340 nm reflected microtubule formation and not precipitation, a fluorescent microtubule assembly assay was employed.

[4] = biological target: T1, purified porcine tubulin; assay: Fluorescent microtubule assembly assay; format: biochemical; conditions: mammalian tubulin, fluorescence micrographs
Description: as §1

In the case of CCc1c(C)nc(-n2nc(C)cc2NC(=O)c2ccccc2SC)[nH]c1=O [MMV676477, N-(1-(5-Ethyl-4-methyl-6-oxo-1,6-dihydropyrimidin-2-yl)-3-methyl-1H-pyrazol-5-yl)-2-(methylthio)benzamide], the “tubulin intensity over control (DMSO-treated)” value [1] is reported as “significant two-fold increase in tubulin intensity”, the “competition with SW223022 probe (fluorescent tubulin band)” value [2] is reported as “almost completely absent” and the EC50 ([3]; 3 mg/ml tubulin, 1% DMSO, A340) is reported as 11 µM. For the same molecule, the “tubulin polymerization activity with detergent” value ([3]; 0.01% Triton-X treatment) was “not affected”, the “Maximum absorbance (A340, 10% DMSO)” value ([3]; mammalian tubulin) was 0.4 and the “microtubules formed vs control” value [4] was “many more microtubules were formed”.
